In one data set the test system is HT-29 cells. The data set can be described thus: Inhibition on HT-29 cell proliferation (CellTiter-Glo). The format is cell-based. Particulars: Homo sapiens, HT-29 cells (TP53 R273H mutation), 120 hours. On the procedure:
Influences of the compounds of the present invention on HT-29 cell proliferation were determined by the following method. HT-29 cells (containing TP53 R273H mutation) were purchased from the Cell Bank of Shanghai Institute of Biochemistry and Cell Biology, Chinese Academy of Sciences, and cultured in a McCOY's 5A culture medium containing 10% fetal bovine serum, 100 U penicillin and 100 μg/mL streptomycin. A cell viability was determined by a CellTiter-Glo® Luminescent Cell Viability Assay kit (Promega, article number G7573).
(§1) An experimental method was operated according to steps in the instruction of the kit, which was briefly described as follows: a test compound was dissolved in DMSO first to prepare a 10 mM stock solution, then the stock solution was diluted with the above McCOY's 5A culture medium to prepare a test sample, and a final concentration of the compound was in a range of 1000 nM-0.015 nM. Cells in a logarithmic growth phase were inoculated into a 96-well cell culture plate at a density of 1000 cells per well, cultured in a 5% CO2 incubator at 37° C. overnight, and then the test compound was added to continuously culture for 120 hours. After the culture was ended, 50 µL of CellTiter-Glo detection solution was added to each well, the plates were shaken for 5 minutes, and then allowed to stand for 10 minutes, and subsequently, a luminous value of each well of sample was read by a microplate reader in a Luminescence mode. By comparing with a numerical value of a control group (0.3% DMSO), a percentage inhibition rate of the compound at each concentration was calculated, and then nonlinear regression analysis was carried out based on concentration logarithm-inhibition rate of the compound in GraphPad Prism 5 software, so as to obtain an IC50 value of the compound in inhibition on cell proliferation, which are shown in Table 2.
In general terms: In ATP-based viability assays light output follows the ATP content of the culture.

The test system of another data set is OVCAR-3 cells. Nature of the data set: Inhibition on OVCAR-3 cell proliferation (CellTiter-Glo). The format is cell-based. Particulars: Homo sapiens, OVCAR-3 cells (TP53 R248Q mutation), 72 hours. How it is done: Influences of the compounds of the present invention on OVCAR-3 cell proliferation were determined by the following method. OVCAR-3 cells (containing TP53 R248Q mutation) were purchased from the Cell Bank of Shanghai Institute of Biochemistry and Cell Biology, Chinese Academy of Sciences, and cultured in an RPMI 1640 culture medium containing […], 100 U penicillin and 100 μg/mL streptomycin. A cell viability was determined by a CellTiter-Glo® Luminescent Cell Viability Assay kit (Promega, article number G7573).
as §1, with “RPMI 1640” for “McCOY's 5A”, “72” for “120”, “μL” for “µL”, “1.” for “2.”

A short description of data set [1]: Pharmacokinetic testing in mice. Type of data set: in vivo. Particulars: male, mouse, ICR mice, plasma. How it is done:
ICR mice were taken as test animals, and intragastrically administered with a control compound AMG650 and compounds 1, 18 and 29 of the present invention, and then drug concentrations in plasma at different moments were determined by an LC/MS/MS method, so as to study pharmacokinetic characteristics of the compounds of the present invention in the mice.
Control compound AMG650, and Compounds 1, 18 and 29.
ICR mice, male, 27.3-30.3 g, purchased from Vital River Laboratory Animal Technology Co., Ltd.
A proper amount of to-be-tested compound was weighed, proper amounts of DMA (N,N-dimethylacetamide), CrEL (polyoxyethylene 35 castor oil) and 5% GS (5% glucose injection) were added in sequence, and the obtained system was evenly mixed by ultrasonic vortex to prepare a 1 mg/mL preparation, wherein DMA, CrEL and 5% GS=10:10:80 (v:v:v).
ICR mice in each to-be-tested compound injection group (9 mice in each group) were fasted overnight and then intragastrically administered with the compound (PO, an administration dosage of the compound was 10 mg/kg and an administration volume of the compound was 10 mL/kg), and were fed 4 hours after administration.
0.25 hours, 0.5 hours, 1 hour, 2 hours, 4 hours, 8 hours, 10 hours and 24 hours before and after administration, about […] of blood was collected through an orbit, and a complete blood sample was placed in an EDTA-K2-containing anticoagulation tube. The collected blood sample was placed on ice, and plasma was centrifugally separated (centrifugation conditions: 1500 g, 10 minutes). The collected plasma was stored at −40~−20° C. before analysis.
A content of the to-be-tested compound in the plasma of the mice after intragastric administration was determined by LC-MS/MS.

SMILES strings stand for the structures.

The IC50 is the point on the concentration scale where inhibition reaches its midpoint. Read a high IC50 as lower potency. As a reminder, the half-life is the time in which the quantity being followed falls by half. Regarding `CCS(=O)(=O)Nc1ccc(C(=O)Nc2cc(N3CCC(F)(F)CC3)c3nn(C)cc3c2)c(N2CCC3(CC2)CC3)c1` [Example 18, N-(7-(4,4-difluoropiperidin-1-yl)-2-methyl-2H-indazol-5-yl)-4-(ethylsulfonamido)-2-(6-azaspiro[2.5]octan-6-yl)benzamide], the concentration for half-maximal inhibition (IC50) with HT-29 cells came to 7.7 nM; in the data set on OVCAR-3 cells, 3.3 nM. Also, the half-life in data set [1] (10 mg/kg, oral administration (10 mg/mL), read-out: Half-life period T½ (converted)) was 5.2 h. The Cmax in data set [1] (10 mg/kg, oral administration (10 mg/mL), read-out: Plasma concentration Cmax) worked out at 3.03 µg/mL. In addition, the AUC(0-inf) in data set [1] (oral administration (10 mg/kg), read-out: Area under the curve AUC0-∞) came out at 45.9 µg·h/mL.

Values taken from patent US20260256763A1, “Aromatic Amide Derivative, And Preparation Method Therefor And Use Thereof” (Zhejiang Hisun Pharmaceutical Co., Ltd., priority 2023, published 2026).
